This is an account of results in PMC2213148 (The Journal of Experimental Medicine, 2005).

One assay has as its target T1, PPAR-γ (Homo sapiens, UniProt P37231).
T1 sequence (P37231 231-505 limits assumed): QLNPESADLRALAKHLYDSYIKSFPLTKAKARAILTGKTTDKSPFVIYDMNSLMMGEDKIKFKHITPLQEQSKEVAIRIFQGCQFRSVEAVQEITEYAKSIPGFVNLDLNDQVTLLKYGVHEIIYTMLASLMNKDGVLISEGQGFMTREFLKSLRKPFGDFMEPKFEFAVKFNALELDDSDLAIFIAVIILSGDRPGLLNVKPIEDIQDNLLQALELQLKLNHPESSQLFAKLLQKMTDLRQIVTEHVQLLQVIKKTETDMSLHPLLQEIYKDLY
Nature of the assay: competitive radioligand binding with [3H]rosiglitazone on purified LBD.

The target of assay [1] is GST-DRIP-205 fusion protein (UniProt Q15648 1-1581). Nature of the assay: pull-down.
GST-DRIP-205 fusion protein, sequence (Q15648 whole entry, the tested form may be a part): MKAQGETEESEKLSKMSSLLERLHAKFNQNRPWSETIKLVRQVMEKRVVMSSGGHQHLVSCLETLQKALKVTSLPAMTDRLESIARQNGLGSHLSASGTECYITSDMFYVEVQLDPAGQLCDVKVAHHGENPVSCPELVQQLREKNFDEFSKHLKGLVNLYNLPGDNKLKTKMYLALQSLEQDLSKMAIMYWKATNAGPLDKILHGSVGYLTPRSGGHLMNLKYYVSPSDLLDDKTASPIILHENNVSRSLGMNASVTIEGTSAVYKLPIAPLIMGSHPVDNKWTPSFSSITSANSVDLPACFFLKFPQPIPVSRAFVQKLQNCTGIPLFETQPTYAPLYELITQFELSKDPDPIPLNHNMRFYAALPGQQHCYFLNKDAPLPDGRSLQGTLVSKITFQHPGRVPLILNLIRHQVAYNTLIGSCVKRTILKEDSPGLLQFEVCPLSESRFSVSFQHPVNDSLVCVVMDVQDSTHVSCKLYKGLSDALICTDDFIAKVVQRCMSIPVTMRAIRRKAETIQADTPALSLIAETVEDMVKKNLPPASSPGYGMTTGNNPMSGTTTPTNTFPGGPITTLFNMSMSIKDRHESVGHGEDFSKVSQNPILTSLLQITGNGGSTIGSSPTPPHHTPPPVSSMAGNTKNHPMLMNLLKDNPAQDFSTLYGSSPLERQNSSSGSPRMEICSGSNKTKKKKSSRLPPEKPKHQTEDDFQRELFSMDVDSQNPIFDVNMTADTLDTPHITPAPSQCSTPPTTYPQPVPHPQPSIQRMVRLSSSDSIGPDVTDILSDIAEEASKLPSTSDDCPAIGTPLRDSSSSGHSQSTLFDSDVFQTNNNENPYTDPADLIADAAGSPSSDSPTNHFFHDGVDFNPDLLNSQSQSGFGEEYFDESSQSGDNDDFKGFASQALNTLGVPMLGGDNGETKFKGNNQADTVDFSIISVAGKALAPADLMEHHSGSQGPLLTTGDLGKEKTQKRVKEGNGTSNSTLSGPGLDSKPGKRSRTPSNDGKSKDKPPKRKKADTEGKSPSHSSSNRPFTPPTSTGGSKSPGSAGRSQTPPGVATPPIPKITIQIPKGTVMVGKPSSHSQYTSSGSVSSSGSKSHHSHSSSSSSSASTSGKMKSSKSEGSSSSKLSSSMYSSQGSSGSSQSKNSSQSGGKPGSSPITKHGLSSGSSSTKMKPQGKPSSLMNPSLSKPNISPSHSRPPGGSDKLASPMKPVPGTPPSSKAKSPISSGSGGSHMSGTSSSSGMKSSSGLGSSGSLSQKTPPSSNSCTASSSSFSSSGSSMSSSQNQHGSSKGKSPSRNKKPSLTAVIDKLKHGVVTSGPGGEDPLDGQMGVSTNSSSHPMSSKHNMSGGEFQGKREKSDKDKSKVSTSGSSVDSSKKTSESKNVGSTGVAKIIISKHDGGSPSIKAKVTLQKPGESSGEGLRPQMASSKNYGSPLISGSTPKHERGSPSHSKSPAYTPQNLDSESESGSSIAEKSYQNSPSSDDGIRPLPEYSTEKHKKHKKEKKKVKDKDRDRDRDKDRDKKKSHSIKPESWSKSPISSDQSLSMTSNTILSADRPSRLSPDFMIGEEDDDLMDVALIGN

The Ki is a dissociation constant, usually derived from enzyme kinetics or from competition with a known ligand. Read a high Ki as lower affinity. Take `Nc1ccc(O)c(C(=O)O)c1` [5-ASA]: the inhibition constant (Ki) on PPAR-γ is 28.7 mM.

B1: [35S]methionine-labeled human PPAR-γ (receptor, UniProt P37231-1 1-505, looked up)
chain: MGETLGDSPIDPESDSFTDTLSANISQEMTMVDTEMPFWPTNFGISSVDLSVMEDHSHSFDIKPFTTVDFSSISTPHYEDIPFTRTDPVVADYKYDLKLQEYQSAIKVEPASPPYYSEKTQLYNKPHEEPSNSLMAIECRVCGDKASGFHYGVHACEGCKGFFRRTIRLKLIYDRCDLNCRIHKKSRNKCQYCRFQKCLAVGMSHNAIRFGRMPQAEKEKLLAEISSDIDQLNPESADLRALAKHLYDSYIKSFPLTKAKARAILTGKTTDKSPFVIYDMNSLMMGEDKIKFKHITPLQEQSKEVAIRIFQGCQFRSVEAVQEITEYAKSIPGFVNLDLNDQVTLLKYGVHEIIYTMLASLMNKDGVLISEGQGFMTREFLKSLRKPFGDFMEPKFEFAVKFNALELDDSDLAIFIAVIILSGDRPGLLNVKPIEDIQDNLLQALELQLKLNHPESSQLFAKLLQKMTDLRQIVTEHVQLLQVIKKTETDMSLHPLLQEIYKDLY
modifications: [35S]methionine-labeled
For the molecule B1, in assay [1], the “amount bound with 5-ASA (5 mM) relative to that with rosiglitazone (10^-5 M)” value was about 150%.
